Assay [1] relates to AR protein in LNCaP cells. Nature of the assay: Immunoblot of AR protein. The class given is cell-based, human. The following applies: for inhibition of DHT induced AR protein levels: 10 nM DHT; for inhibition of AR protein levels: absence of DHT. As for the experimental part: (§1) The whole-cell lysates were prepared as described previously in immunoprecipitation (IP) buffer containing 50 mM Tris-HCl (pH 8.0), 150 mM NaCl, 5 mM EDTA, and 1% Triton X-100. Protein aliquots of 500 μg were then incubated overnight at 4°C using 2 μg of antibody directed against AR. The Protein A-Cl Agarose beads were then added and further incubated for 6 h at 4°C. The immunoprecipitates were washed four times with the IP buffer and the immunocomplexes were recovered by boiling in SDS sample buffer. Finally the western blot was carried out using anti-AR, anti-SRC-1 and anti-GRIP-1 antibodies (Santa Cruz, CA, USA). For western blot analysis, the cell lysates were prepared after harvesting them in lysis buffer. About 40 μg of total protein was electrophoresed by 12% SDS-PAGE, and the western blotting was carried out using standard protocol. In brief, the analyzed proteins were transferred to nylon membranes. The blots were then blocked with TBST buffer (20 mM Tris-Cl, pH 7.5, 150 mM sodium chloride, 0.05% Tween-20) containing 5% skim milk powder. They were then washed with TBST buffer and incubated overnight at 4°C with the same buffer containing appropriate amounts of primary antibodies: caspase-3, Bax, Bcl-2, Akt, p-Akt, ERK, p-ERK, AR, SRC-1, GRIP-1 (1∶500) and β-actin (1∶1000). The blots were then washed and incubated with anti-rabbit secondary antibody (1∶20,000) conjugated with horseradish peroxidase (HRP). Color development was performed in the dark by using an ECL kit (Amersham, GE Healthcare, Buckinghamshire, UK). The developed blots were subjected to densitometric analysis by ImageJ 1.43 software (NIH, USA) using β-actin as internal control.

In assay [2] the test system is LNCaP cells. Kind of assay: MTT cell death with/without p53 inhibitor PFT-α. The format is cell-based, human. To be noted: 20 and 40 μM conjugate 24 h, 20 μM PFT-α pre-treatment. The source says:
Since there was no significant difference in the number of apoptotic cells between conjugate treated LNCaP (wild type p53) and PC-3 (p53 null) cells (p<0.05), it was intriguing to check if p53 has any role in conjugate induced apoptosis of PCa cells. For this study we employed a pharmacological approach using specific wild type p53 inhibitor, pifithrin-α (PFT-α). PFT-α is a small molecule that binds to the DNA binding domain of p53, thereby inhibiting its transcriptional activity. For our experiment the LNCaP cells were pre-treated with 20 μM PFT-α for 2 h prior to the addition of 20 and 40 μM of conjugate for next 24 h. Subsequently the drug treated cells were used to check caspase-3 activity and cell death by immunoblot analysis (Fig. 4A) and MTT assay (Fig. 4B) respectively. […] Next we determined the effect of p53-inhibition on conjugate induced cell death by using MTT assay.

A further assay concerns PC-3 cells. Kind of assay: MTT cytotoxicity assay. The format is cell-based. The following applies: Homo sapiens; PC-3, MTT, 24 h exposure, mean ± SEM; read-out: IC50 value (50% growth inhibition). Here is the method:
(§2) MTT assay was carried out as described previously. In brief, 5×10^3 cells in 200 μl of medium were seeded in 96-well plates (Griener, Germany). After 24 h, the cells were treated with various concentrations (0.1, 1, 10, 100 and 1000 μM) of RESV, PTER and conjugate. The control cells were treated with 0.1% DMSO (vehicle control). The cultured cells were assayed after 24 h by adding 20 μl of 5 mg/ml MTT followed by incubating at 37°C for 4 h. The MTT containing media was then aspirated and 200 μl DMSO (Himedia, Mumbai, India) was added to dissolve the formazone crystals. The optical density (OD) was measured at 570 nm using ELISA plate reader (Fluostar optima, BMG Labtech, Germany). The percentage inhibition was calculated as: [drawing 1]
(§3) The dose response curve and IC50 values were obtained by nonlinear regression analysis [non-linear regression (sigmoidal dose response with variable slope)] using Graph Pad Prism, version 5.02 software (Graph Pad Software Inc., CA, USA).
(Tetrazolium assays rely on reduction of a dye to a coloured formazan, in cell work by metabolically active cells.)

A further assay deals with CHO cells. Kind of assay: MTT cytotoxicity assay. The class given is cell-based. The following applies: Cricetulus griseus, CHO noncancer cells, 24 h exposure, read-out: IC50 value (50% growth inhibition). As for the experimental part:
as §2, §3

Assay [3] deals with LNCaP cells. Kind of assay: MTT cytotoxicity assay. The format is cell-based. To be noted: Homo sapiens, 24 h, 24 h exposure, mean ± SEM, read-out: IC50 value (50% growth inhibition). Here is the method:
as §2, §3

The next assay relates to COS-1 cells. Kind of assay: MTT cytotoxicity assay. The format is cell-based. To be noted: Chlorocebus aethiops, COS-1 noncancer cells, 24 h exposure, read-out: IC50 value (50% growth inhibition). As for the experimental part: as §2, §3
Assay [4] has as its system AR gene expression in LNCaP cells. Nature of the assay: RT-PCR of AR expression. The class given is cell-based, human. To be noted: for reduction of DHT induced AR transcription: 10 nM DHT. As for the experimental part:
Total RNA was extracted from the treated cells using RNA isolation kit obtained from Genei (Bangalore, India). The extracted RNA samples were then quantified and equal amount of the individual treatments was transcribed with the help of an RT - PCR kit from Genei (Bangalore, India) according to the manufacturer’s instruction. PCR was performed by denaturing at 94°C for 60 s, annealing at various temperatures (depending on primer pairs used) for 45 s and extension at 72°C for 2 min followed by the number of cycles for amplification. Primers for Bcl-2, Bcl-xL, Bax, AR and β-Actin were designed with the help of Primer 3 software and standardized in the laboratory. The PCR products were then separated on 2% agarose gel and visualized in a gel documentation system (Bio Rad, USA). The intensity of the bands on agarose gels were analyzed using ImageJ 1.43 software (NIH, USA) and normalized with respect to β-actin PCR products. Each of the RT-PCR was carried out three times. Table S1 presents the primer sequence, product size, annealing temperature, and number of cycles used for all primers.

A further assay deals with GRIP-1 in LNCaP cells. Nature of the assay: Immunoblot of AR co-activators. The format is cell-based, human. As for the experimental part: as §1
For the next assay, the system named is SRC-1 in LNCaP cells. Kind of assay: Immunoblot of AR co-activators. The format is cell-based, human. Here is the method:
as §1
Background: A western blot detects proteins with antibodies after separation by electrophoresis.

The IC50 is the point on the concentration scale where inhibition reaches its midpoint. As for `COc1cc(/C=C/c2ccc(O)c(/C=N/NC(N)=S)c2)cc(OC)c1` [conjugate, Pterostilbene-isothiocyanate conjugate], the “inhibition of DHT induced AR protein levels” value amounted to 1.1 folds in assay [1] (10 μM) and 1.8 folds in assay [1] (20 μM). Also, the “inhibition of AR protein levels” value in assay [1] (10 μM) is listed as 2 folds; in assay [1] (20 μM), 5 folds. The “cell death with vs without PFT-α” value with LNCaP cells [2] was “did not differ significantly”. Further, the concentration for half-maximal inhibition (IC50) in the assay with PC-3 cells was 45 ± 1.5 µM; in the assay with CHO cells, more than 100 µM; in the assay on LNCaP cells [3], 40 ± 1.12 µM; in the assay with COS-1 cells it was more than 100 µM. Besides, the entries for the “reduction of DHT induced AR transcription” value in [4] (10 μM), in assay [4] (20 μM) and in [4] (40 μM) were “about 1.2 fold”, approximately 1.3 fold and approximately 1.4 fold, respectively. Moreover, in assay [4] (below 40 μM, absence of 10 nM DHT, RT-PCR), the “effect on expression of AR gene” value was “no significant effects”. For the same compound, the “reduction of GRIP-1 level” value turned out to be 1.7 folds in the assay with GRIP-1 in LNCaP cells (10 μM) and 2.6 folds with GRIP-1 in LNCaP cells (20 μM). For the same compound, the “decrease in expression of SRC-1 protein” value in the assay with SRC-1 in LNCaP cells (10 μM) is 1.4 folds; with SRC-1 in LNCaP cells (20 μM), 2.6 folds.

These data come from article PMC3974779, “Pterostilbene-Isothiocyanate Conjugate Suppresses Growth of Prostate Cancer Cells Irrespective of Androgen Receptor Status” (PLoS ONE, 2014).
